Activity calls are given as the source filed them. No rule for the calls is given here.
Tested on: CCRIS mutagenicity, Ames/micronucleus/aberration tests
Test: CCRIS mutagenicity studies
[1] = Test System: AMES SALMONELLA TYPHIMURIUM, Strain/Indicator: TA98, Metabolic Activation: NONE, Method: PREINCUBATION
[2] = Test System: AMES SALMONELLA TYPHIMURIUM, Strain/Indicator: TA100, Metabolic Activation: NONE, Method: PREINCUBATION
[3] = Test System: AMES SALMONELLA TYPHIMURIUM, Strain/Indicator: TA1535, Metabolic Activation: NONE, Method: PREINCUBATION
[4] = Test System: AMES SALMONELLA TYPHIMURIUM, Strain/Indicator: TA1537, Metabolic Activation: NONE, Method: PREINCUBATION
[5] = Test System: AMES SALMONELLA TYPHIMURIUM, Strain/Indicator: TA97, Metabolic Activation: NONE, Method: STANDARD PLATE
[6] = Test System: AMES SALMONELLA TYPHIMURIUM, Strain/Indicator: TA98, Metabolic Activation: NONE, Method: STANDARD PLATE
[7] = Test System: AMES SALMONELLA TYPHIMURIUM, Strain/Indicator: TA100, Metabolic Activation: NONE, Method: STANDARD PLATE
[8] = Test System: AMES SALMONELLA TYPHIMURIUM, Strain/Indicator: TA102, Metabolic Activation: NONE, Method: STANDARD PLATE

Measured: mutagenic call

Nc1cccc2c(=O)[nH][nH]c(=O)c12
inactive: Test System: AMES SALMONELLA TYPHIMURIUM, Strain/Indicator: TA97, Metabolic Activation: HAMSTER, LIVER, S-9, AROCLOR 1254 (10 OR 30%), Method: PREINCUBATION inactive; negative | Test System: AMES SALMONELLA TYPHIMURIUM, Strain/Indicator: TA97, Metabolic Activation: NONE, Method: PREINCUBATION inactive; negative | Test System: AMES SALMONELLA TYPHIMURIUM, Strain/Indicator: TA97, Metabolic Activation: RAT, LIVER, S-9, AROCLOR 1254 (10 OR 30%), Method: PREINCUBATION inactive; negative | Test System: AMES SALMONELLA TYPHIMURIUM, Strain/Indicator: TA98, Metabolic Activation: HAMSTER, LIVER, S-9, AROCLOR 1254 (10 OR 30%), Method: PREINCUBATION inactive; negative | [1] inactive; negative | Test System: AMES SALMONELLA TYPHIMURIUM, Strain/Indicator: TA98, Metabolic Activation: RAT, LIVER, S-9, AROCLOR 1254 (10 OR 30%), Method: PREINCUBATION inactive; negative | Test System: AMES SALMONELLA TYPHIMURIUM, Strain/Indicator: TA100, Metabolic Activation: HAMSTER, LIVER, S-9, AROCLOR 1254 (10 OR 30%), Method: PREINCUBATION inactive; negative | [2] inactive; negative | Test System: AMES SALMONELLA TYPHIMURIUM, Strain/Indicator: TA100, Metabolic Activation: RAT, LIVER, S-9, AROCLOR 1254 (10 OR 30%), Method: PREINCUBATION inactive; negative | Test System: AMES SALMONELLA TYPHIMURIUM, Strain/Indicator: TA1535, Metabolic Activation: HAMSTER, LIVER, S-9, AROCLOR 1254 (10 OR 30%), Method: PREINCUBATION inactive; negative | [3] inactive; negative | Test System: AMES SALMONELLA TYPHIMURIUM, Strain/Indicator: TA1535, Metabolic Activation: RAT, LIVER, S-9, AROCLOR 1254 (10 OR 30%), Method: PREINCUBATION inactive; negative | Test System: AMES SALMONELLA TYPHIMURIUM, Strain/Indicator: TA1537, Metabolic Activation: HAMSTER, LIVER, S-9, AROCLOR 1254 (10 OR 30%), Method: PREINCUBATION inactive; negative | [4] inactive; negative | Test System: AMES SALMONELLA TYPHIMURIUM, Strain/Indicator: TA1537, Metabolic Activation: RAT, LIVER, S-9, AROCLOR 1254 (10 OR 30%), Method: PREINCUBATION inactive; negative

CCCCC(CC)COC(=O)c1ccccc1C(=O)O (configuration not stated)
inactive: [5] inactive; negative | Test System: AMES SALMONELLA TYPHIMURIUM, Strain/Indicator: TA97, Metabolic Activation: RAT, LIVER, S-9, AROCLOR 1254, Method: STANDARD PLATE inactive; negative | Test System: AMES SALMONELLA TYPHIMURIUM, Strain/Indicator: TA97, Metabolic Activation: RAT, LIVER, S-9, DI(2-ETHYLHEXYL)PHTHALATE, Method: STANDARD PLATE inactive; negative | Test System: AMES SALMONELLA TYPHIMURIUM, Strain/Indicator: TA98, Metabolic Activation: HAMSTER, LIVER, S-9, AROCLOR 1254 (10%), Method: PREINCUBATION inactive; negative | [1] inactive; negative | [6] inactive; negative | Test System: AMES SALMONELLA TYPHIMURIUM, Strain/Indicator: TA98, Metabolic Activation: RAT, LIVER, S-9, AROCLOR 1254 (10%), Method: PREINCUBATION inactive; negative | Test System: AMES SALMONELLA TYPHIMURIUM, Strain/Indicator: TA98, Metabolic Activation: RAT, LIVER, S-9, AROCLOR 1254, Method: STANDARD PLATE inactive; negative | Test System: AMES SALMONELLA TYPHIMURIUM, Strain/Indicator: TA98, Metabolic Activation: RAT, LIVER, S-9, DI(2-ETHYLHEXYL)PHTHALATE, Method: STANDARD PLATE inactive; negative | Test System: AMES SALMONELLA TYPHIMURIUM, Strain/Indicator: TA100, Metabolic Activation: HAMSTER, LIVER, S-9, AROCLOR 1254 (10%), Method: PREINCUBATION inactive; negative | [2] inactive; negative | [7] inactive; negative | Test System: AMES SALMONELLA TYPHIMURIUM, Strain/Indicator: TA100, Metabolic Activation: RAT, LIVER, S-9, AROCLOR 1254 (10%), Method: PREINCUBATION inactive; negative | Test System: AMES SALMONELLA TYPHIMURIUM, Strain/Indicator: TA100, Metabolic Activation: RAT, LIVER, S-9, AROCLOR 1254, Method: STANDARD PLATE inactive; negative | Test System: AMES SALMONELLA TYPHIMURIUM, Strain/Indicator: TA100, Metabolic Activation: RAT, LIVER, S-9, DI(2-ETHYLHEXYL)PHTHALATE, Method: STANDARD PLATE inactive; negative | [8] inactive; negative | Test System: AMES SALMONELLA TYPHIMURIUM, Strain/Indicator: TA102, Metabolic Activation: RAT, LIVER, S-9, AROCLOR 1254, Method: STANDARD PLATE inactive; negative | Test System: AMES SALMONELLA TYPHIMURIUM, Strain/Indicator: TA102, Metabolic Activation: RAT, LIVER, S-9, DI(2-ETHYLHEXYL)PHTHALATE, Method: STANDARD PLATE inactive; negative | Test System: AMES SALMONELLA TYPHIMURIUM, Strain/Indicator: TA1535, Metabolic Activation: HAMSTER, LIVER, S-9, AROCLOR 1254 (10%), Method: PREINCUBATION inactive; negative | [3] inactive; negative | Test System: AMES SALMONELLA TYPHIMURIUM, Strain/Indicator: TA1535, Metabolic Activation: RAT, LIVER, S-9, AROCLOR 1254 (10%), Method: PREINCUBATION inactive; negative | Test System: AMES SALMONELLA TYPHIMURIUM, Strain/Indicator: TA1537, Metabolic Activation: HAMSTER, LIVER, S-9, AROCLOR 1254 (10%), Method: PREINCUBATION inactive; negative | [4] inactive; negative | Test System: AMES SALMONELLA TYPHIMURIUM, Strain/Indicator: TA1537, Metabolic Activation: RAT, LIVER, S-9, AROCLOR 1254 (10%), Method: PREINCUBATION inactive; negative

CCOC(=O)C1=C(C)NC(C)=C(C(=O)OCC2COC3(CCCC3)O2)C1c1cccc(Cl)c1 (configuration not stated)
inactive: [5] inactive; negative | Test System: AMES SALMONELLA TYPHIMURIUM, Strain/Indicator: TA97, Metabolic Activation: RAT, LIVER, S-9, Method: STANDARD PLATE inactive; negative | [6] inactive; negative | Test System: AMES SALMONELLA TYPHIMURIUM, Strain/Indicator: TA98, Metabolic Activation: RAT, LIVER, S-9, Method: STANDARD PLATE inactive; negative | [7] inactive; negative | Test System: AMES SALMONELLA TYPHIMURIUM, Strain/Indicator: TA100, Metabolic Activation: RAT, LIVER, S-9, Method: STANDARD PLATE inactive; negative | [8] inactive; negative | Test System: AMES SALMONELLA TYPHIMURIUM, Strain/Indicator: TA102, Metabolic Activation: RAT, LIVER, S-9, Method: STANDARD PLATE inactive; negative | Test System: CHINESE HAMSTER V-79, Strain/Indicator: V-79 (HPRT)/6-THIOGUANINE, Metabolic Activation: NONE inactive; negative

O=c1oc2c(O)c(O)cc3c(=O)oc4c(O)c(O)cc1c4c23
inactive: [1] inactive; negative | Test System: AMES SALMONELLA TYPHIMURIUM, Strain/Indicator: TA98, Metabolic Activation: RAT LIVER S-9, Method: PREINCUBATION inactive; negative | [2] inactive; negative | Test System: AMES SALMONELLA TYPHIMURIUM, Strain/Indicator: TA100, Metabolic Activation: RAT LIVER S-9, Method: PREINCUBATION inactive; negative | Test System: Ames Salmonella typhimurium, Strain/Indicator: TA102, Metabolic Activation: None, Method: Preincubation inactive; negative | Test System: Ames Salmonella typhimurium, Strain/Indicator: TA102, Metabolic Activation: Rat, Liver, S-9, Aroclor 1254 in 0.154 M KCl, Method: Preincubation inactive; negative | Test System: E. COLI, Strain/Indicator: WP2, Metabolic Activation: RAT, LIVER, S-9, AROCLOR 1254, Method: STANDARD PLATE inactive; negative | Test System: MOUSE LYMPHOMA, Strain/Indicator: L5178Y (TK+/TK-), Metabolic Activation: NONE, Method: SUSPENSION/PLATE inactive; negative. reevaluation of results: negative | Test System: MOUSE LYMPHOMA, Strain/Indicator: L5178Y (TK+/TK-), Metabolic Activation: RAT, LIVER, S-9, AROCLOR 1254, Method: SUSPENSION/PLATE inactive; negative. reevaluation of results: inconclusive
